Experimental data from ChEMBL document CHEMBL3526031, “Mechanistic studies on the absorption and disposition of scutellarin in humans: selective OATP2B1-mediated hepatic uptake is a likely key determinant for its unique pharmacokinetic characteristics” (Drug Metab Dispos, 2012).
pKi: −log10 of the molar value.

How the values were obtained:
[1] = biological target: ATP-binding cassette sub-family C member 2 (Homo sapiens, UniProt Q92887); assay: Drug uptake assessed as human MRP2-mediated drug transport using inside-out membrane vesicles by measuring +ATP/-ATP ratio by LC-MS/MS analysis; assay type: ADME
Sequence of ATP-binding cassette sub-family C member 2 (Q92887 whole entry): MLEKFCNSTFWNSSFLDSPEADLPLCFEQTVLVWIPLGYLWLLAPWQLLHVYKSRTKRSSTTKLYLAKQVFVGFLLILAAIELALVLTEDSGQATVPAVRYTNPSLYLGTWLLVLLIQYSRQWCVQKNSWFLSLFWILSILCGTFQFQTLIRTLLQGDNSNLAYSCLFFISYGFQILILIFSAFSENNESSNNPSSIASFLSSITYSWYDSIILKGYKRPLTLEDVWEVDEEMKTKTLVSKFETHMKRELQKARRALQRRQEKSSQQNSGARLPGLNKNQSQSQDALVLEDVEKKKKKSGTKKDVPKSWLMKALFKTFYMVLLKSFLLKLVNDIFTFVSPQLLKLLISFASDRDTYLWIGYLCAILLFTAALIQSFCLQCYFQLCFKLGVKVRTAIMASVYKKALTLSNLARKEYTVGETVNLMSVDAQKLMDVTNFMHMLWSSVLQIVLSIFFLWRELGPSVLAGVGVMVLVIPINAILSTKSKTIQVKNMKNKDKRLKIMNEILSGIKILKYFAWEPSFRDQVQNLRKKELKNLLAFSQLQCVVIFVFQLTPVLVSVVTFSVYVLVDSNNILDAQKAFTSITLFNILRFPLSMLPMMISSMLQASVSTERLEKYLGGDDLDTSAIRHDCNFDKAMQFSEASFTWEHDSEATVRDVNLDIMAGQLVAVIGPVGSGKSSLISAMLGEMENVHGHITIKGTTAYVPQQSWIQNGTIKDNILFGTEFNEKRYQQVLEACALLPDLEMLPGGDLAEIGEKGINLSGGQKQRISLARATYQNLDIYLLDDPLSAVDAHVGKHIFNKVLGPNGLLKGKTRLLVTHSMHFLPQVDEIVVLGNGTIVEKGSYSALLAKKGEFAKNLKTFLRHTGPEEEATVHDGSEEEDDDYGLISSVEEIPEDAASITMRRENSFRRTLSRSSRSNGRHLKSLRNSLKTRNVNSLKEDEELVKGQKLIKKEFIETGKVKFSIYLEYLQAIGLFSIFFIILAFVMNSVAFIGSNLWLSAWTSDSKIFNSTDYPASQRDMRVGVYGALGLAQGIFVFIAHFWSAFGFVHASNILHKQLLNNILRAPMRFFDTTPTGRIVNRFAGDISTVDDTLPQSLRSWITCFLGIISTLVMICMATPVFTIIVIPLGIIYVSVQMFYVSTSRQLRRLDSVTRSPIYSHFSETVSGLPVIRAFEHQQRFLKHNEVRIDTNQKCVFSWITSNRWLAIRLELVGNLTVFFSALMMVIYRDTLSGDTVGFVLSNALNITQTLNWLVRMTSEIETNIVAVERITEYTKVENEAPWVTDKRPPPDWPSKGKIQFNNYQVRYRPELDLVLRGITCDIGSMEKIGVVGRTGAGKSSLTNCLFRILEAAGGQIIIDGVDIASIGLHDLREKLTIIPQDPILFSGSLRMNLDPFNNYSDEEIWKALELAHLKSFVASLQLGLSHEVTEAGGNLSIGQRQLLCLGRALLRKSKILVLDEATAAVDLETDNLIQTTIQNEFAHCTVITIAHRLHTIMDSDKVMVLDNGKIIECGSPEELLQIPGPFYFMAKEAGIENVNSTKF

[2] = Ratio of Vmax to Km for drug metabolism in rat intestinal microsomes assessed as formation of scutellarein-6,7-diglucuronide after 7 mins by HPLC/UV analysis; assay type: ADME, Intestine, Microsome
[3] = biological target: T1, UDP-glucuronosyltransferase 1A10 (Homo sapiens, UniProt Q9HAW8); assay: Ratio of Vmax to Km for drug metabolism assessed as human recombinant UGT1A10-mediated formation of scutellarein-6,7-diglucuronide after 25 mins by HPLC/UV analysis; assay type: ADME; conditions: recombinant enzyme
T1 sequence (Q9HAW8 whole entry): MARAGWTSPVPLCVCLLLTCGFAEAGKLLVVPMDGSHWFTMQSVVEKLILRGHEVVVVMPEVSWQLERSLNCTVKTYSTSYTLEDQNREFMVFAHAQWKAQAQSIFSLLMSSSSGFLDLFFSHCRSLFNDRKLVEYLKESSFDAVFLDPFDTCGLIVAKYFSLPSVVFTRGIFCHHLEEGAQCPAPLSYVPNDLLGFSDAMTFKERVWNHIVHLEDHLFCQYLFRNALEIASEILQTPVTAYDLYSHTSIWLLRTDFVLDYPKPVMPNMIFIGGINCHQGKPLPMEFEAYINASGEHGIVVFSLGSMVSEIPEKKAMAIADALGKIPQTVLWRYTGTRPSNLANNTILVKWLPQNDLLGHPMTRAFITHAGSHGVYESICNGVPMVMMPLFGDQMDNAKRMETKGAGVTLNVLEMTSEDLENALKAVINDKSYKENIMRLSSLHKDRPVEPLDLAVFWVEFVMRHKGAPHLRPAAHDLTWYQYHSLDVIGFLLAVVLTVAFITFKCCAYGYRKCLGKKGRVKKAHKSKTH

Liver microsome = assay: Ratio of Vmax to Km for drug metabolism in human liver microsomes assessed as formation of scutellarein-6,7-diglucuronide after 7 mins by HPLC/UV analysis; assay type: ADME
[4] = biological target: T2, UDP-glucuronosyltransferase 1A8 (Homo sapiens, UniProt Q9HAW9); assay: Ratio of Vmax to Km for drug metabolism assessed as human recombinant UGT1A8-mediated formation of scutellarein-6,7-diglucuronide after 25 mins by HPLC/UV analysis; assay type: ADME; conditions: recombinant enzyme
T2 sequence (Q9HAW9 whole entry): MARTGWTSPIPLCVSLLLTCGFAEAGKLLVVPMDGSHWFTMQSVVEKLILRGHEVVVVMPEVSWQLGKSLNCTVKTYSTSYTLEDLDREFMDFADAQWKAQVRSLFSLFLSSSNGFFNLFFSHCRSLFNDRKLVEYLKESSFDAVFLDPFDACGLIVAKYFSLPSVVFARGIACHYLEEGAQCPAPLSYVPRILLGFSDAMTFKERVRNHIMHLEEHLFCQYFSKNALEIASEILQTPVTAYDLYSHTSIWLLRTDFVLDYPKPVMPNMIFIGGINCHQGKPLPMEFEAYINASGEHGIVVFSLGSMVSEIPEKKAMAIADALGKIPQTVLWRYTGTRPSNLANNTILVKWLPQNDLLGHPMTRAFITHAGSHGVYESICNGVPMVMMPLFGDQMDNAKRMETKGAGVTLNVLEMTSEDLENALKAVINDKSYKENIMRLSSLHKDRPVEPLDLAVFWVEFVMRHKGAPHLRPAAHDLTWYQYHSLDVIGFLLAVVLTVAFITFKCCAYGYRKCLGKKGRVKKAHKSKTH

[5] = biological target: ATP-binding cassette sub-family C member 3 (Homo sapiens, UniProt O15438); assay: Drug uptake assessed as human MRP3-mediated drug transport using inside-out membrane vesicles by measuring +ATP/-ATP ratio by LC-MS/MS analysis; assay type: ADME
Sequence of ATP-binding cassette sub-family C member 3 (O15438 whole entry): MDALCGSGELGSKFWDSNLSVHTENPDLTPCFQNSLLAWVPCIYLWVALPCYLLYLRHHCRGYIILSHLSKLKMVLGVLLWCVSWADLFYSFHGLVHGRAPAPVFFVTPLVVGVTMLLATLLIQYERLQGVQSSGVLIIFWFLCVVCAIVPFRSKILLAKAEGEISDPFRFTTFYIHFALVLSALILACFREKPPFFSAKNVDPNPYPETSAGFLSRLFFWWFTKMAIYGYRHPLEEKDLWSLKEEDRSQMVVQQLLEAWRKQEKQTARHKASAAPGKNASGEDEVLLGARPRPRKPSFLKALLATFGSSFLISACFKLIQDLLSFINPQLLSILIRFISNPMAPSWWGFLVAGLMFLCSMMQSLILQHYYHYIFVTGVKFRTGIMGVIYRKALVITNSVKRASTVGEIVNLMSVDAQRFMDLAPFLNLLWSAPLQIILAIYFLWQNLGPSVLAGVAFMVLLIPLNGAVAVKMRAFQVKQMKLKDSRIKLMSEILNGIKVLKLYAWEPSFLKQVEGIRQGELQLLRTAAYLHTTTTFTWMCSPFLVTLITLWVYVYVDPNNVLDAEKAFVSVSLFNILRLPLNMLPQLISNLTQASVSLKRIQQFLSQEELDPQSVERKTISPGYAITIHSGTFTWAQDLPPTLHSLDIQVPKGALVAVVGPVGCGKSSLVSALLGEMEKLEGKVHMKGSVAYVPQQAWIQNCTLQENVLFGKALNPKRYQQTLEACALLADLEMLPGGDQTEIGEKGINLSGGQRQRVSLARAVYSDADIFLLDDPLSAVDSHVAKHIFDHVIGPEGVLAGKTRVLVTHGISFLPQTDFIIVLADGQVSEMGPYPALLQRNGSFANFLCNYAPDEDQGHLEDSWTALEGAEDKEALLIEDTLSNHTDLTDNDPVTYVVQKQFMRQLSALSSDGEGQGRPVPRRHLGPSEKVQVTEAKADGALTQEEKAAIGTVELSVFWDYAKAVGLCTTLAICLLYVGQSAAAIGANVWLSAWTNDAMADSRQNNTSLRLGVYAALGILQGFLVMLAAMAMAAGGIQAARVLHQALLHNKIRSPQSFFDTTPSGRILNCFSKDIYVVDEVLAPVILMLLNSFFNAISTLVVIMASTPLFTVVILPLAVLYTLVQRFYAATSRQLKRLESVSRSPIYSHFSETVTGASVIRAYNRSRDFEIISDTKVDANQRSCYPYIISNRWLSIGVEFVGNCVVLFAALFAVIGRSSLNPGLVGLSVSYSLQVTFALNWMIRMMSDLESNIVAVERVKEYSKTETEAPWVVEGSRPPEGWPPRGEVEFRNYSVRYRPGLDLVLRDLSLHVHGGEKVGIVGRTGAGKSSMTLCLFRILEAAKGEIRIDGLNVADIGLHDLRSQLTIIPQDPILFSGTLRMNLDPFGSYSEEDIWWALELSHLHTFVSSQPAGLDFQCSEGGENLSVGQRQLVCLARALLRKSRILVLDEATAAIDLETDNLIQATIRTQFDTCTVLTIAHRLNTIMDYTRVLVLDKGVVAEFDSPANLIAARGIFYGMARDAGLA

Homo sapiens [6] = assay: Drug level in human assessed as retention time treated with 40 mg, po of scutellarin measured up to 20 hrs by mass defect filter chromatogram analysis; assay type: ADME, organism-based
[7] = biological target: T3, Solute carrier organic anion transporter family member 2B1 (Homo sapiens, UniProt O94956); assay: Ratio of Vmax to Km for drug uptake assessed as OATP2B1 (unknown origin)-mediated drug transport expressed in HEK293 cells by LC-MS/MS analysis; assay type: ADME, cell-based
T3 sequence (O94956 whole entry): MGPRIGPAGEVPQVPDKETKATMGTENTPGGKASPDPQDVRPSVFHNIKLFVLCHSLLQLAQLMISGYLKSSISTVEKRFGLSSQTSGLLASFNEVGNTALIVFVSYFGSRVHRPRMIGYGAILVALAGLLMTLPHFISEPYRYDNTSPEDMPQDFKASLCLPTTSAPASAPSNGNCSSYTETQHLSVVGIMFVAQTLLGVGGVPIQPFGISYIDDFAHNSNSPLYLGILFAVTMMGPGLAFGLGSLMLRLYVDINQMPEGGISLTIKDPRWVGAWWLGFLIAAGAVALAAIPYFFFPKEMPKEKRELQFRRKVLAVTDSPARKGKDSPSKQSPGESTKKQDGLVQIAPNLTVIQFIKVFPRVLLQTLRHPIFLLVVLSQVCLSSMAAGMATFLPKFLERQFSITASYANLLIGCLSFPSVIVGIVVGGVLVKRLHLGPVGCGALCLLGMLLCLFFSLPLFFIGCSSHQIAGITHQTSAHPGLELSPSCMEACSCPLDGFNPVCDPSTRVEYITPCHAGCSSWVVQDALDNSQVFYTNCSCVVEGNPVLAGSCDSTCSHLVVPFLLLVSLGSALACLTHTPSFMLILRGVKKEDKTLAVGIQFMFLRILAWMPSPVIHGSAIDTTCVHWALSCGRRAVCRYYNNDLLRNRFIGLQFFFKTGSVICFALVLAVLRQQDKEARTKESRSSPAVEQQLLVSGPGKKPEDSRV

Homo sapiens [8] = assay: Drug metabolism in human assessed as retention time of parent compound at 40 mg, po up to 20 hrs by mass defect filter chromatogram analysis; assay type: ADME, organism-based; conditions: in vivo
[9] = biological target: T4, UDP-glucuronosyltransferase 1A1 (Homo sapiens, UniProt P22309); assay: Drug metabolism assessed as human recombinant UGT1A1-mediated formation of scutellarein-6,7-diglucuronide after 25 mins by HPLC/UV analysis; assay type: ADME
T4 sequence (P22309 whole entry): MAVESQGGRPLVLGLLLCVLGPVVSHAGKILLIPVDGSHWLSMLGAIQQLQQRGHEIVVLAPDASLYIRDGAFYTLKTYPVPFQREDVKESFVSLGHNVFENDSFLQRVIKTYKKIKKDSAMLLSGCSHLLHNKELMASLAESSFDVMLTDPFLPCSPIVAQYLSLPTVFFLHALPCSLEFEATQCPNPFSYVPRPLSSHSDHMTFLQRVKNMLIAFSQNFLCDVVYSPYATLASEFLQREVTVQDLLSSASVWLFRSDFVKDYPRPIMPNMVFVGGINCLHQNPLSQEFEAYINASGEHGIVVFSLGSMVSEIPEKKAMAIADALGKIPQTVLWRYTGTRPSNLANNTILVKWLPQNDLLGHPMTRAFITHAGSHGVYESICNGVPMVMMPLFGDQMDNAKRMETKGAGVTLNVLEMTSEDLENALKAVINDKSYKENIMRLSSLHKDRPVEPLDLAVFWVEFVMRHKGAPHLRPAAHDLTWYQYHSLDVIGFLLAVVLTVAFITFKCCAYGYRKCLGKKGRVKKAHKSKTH

| Vmax/Km [3] | Vmax/Km [4] | Retention_time (Homo sapiens [6]) | Structure (SMILES) | Ratio [1] | Vmax/Km [2] | Vmax/Km (Liver microsome) | Ratio [5] | Vmax/Km [7] | Retention_time (Homo sapiens [8]) | pKi [9] |
| --- | --- | --- | --- | --- | --- | --- | --- | --- | --- | --- |
| 2.84 µL/min/mg | 7.96 µL/min/mg | 9.19 min | O=C(O)[C@H]1O[C@@H](Oc2c(O)cc3oc(-c4ccc(O)cc4)cc(=O)c3c2O)[C@H](O)[C@@H](O)[C@@H]1O | 3.07 | 30 µL/min/mg | 127 µL/min/mg | 1.61 | – | – | – |
| – | – | – | O=C(O)[C@H]1O[C@@H](Oc2cc3oc(-c4ccc(O)cc4)cc(=O)c3c(O)c2O)[C@H](O)[C@@H](O)[C@@H]1O [SCUTELLARIN] | 3.07 | 18.9 µL/min/mg | 11.8 µL/min/mg | 1.61 | 11.1 µL/min/mg | 7.93 min | 4.02 |
